Experimental data as given in patent publication US9028858B2 (Coloplast A/S, priority 2003, dated 2015).
Read-outs that look alike come from different tables or passages of the source.

Columns and labels:
[1] = Description: The pH value of the latter solution was adjusted to 5.5 with 1 M NaOH. 10.0 mL aliquots of each of the two solutions were taken out and placed in 50 mL brown PE-containers.
The samples were β-irradiation at Risø National Laboratory. The samples were measured before irradiation, immediately after irradiation and after 2 and 4 weeks storage at 60° C. (triple determination).

[2] = Effect of buffer (citrate) in swelling medium on degradation of H2O2; conditions: no stabilizer
[3] = Various stabilizers: degradation of H2O2 at pH 4, 5.5 and 7; conditions: no stabilizer, 25 mM citric acid, approx. 1% H2O2
Description: Therefore the investigation of the influence of the pH-value on the stability in our system was included in the study.
24 different kinds of swelling media containing different stabilizers (one without stabilizer) and 3 different pH-values (pH 4, 5.5 and 7) were prepared. […] The concentration of sodium chloride in each of these three swelling media was 0.7% (w/w). Sodium chloride was tested because it could be used as an osmolality increasing agent. […] Two different kinds of material for the stick-pack were used, one with “peel” and one with “non-peel”. […] The irradiation dose was 2*26 kGy.
The stick-pack with “peel” was a laminated material consisting of PETP (12 μm), aluminium (9 μm) and polyethylene peel (polyethylene+10% polybutylene) (70 μm). […] The stick-packs were made out of a stamped area of 13×35 mm that was welded in the longitudinal direction by 1×3 units on a welder. It was welded by 2×2.2 units across in one end of the stick-pack, and in the other end by 4.0 bar, 130° C. and 3.5 s (breakable seal).
The stick-packs were stored for stability testing at 23° C. and 40° C. Samples were taken out after irradiation and after 2 and 4 weeks at 40° C. and 8 and 16 weeks at 23° C.

[4] = test system: 7 different bacterial strains; conditions: mid-log phase, absorbance at 600 nm, 7 strains pooled
Source text: The obtained data from each specific bacterial strain were pooled.

[5] = hydrogen peroxide taken alone
Remark: listed apart in the source

Compound: OO [Std H2O2, hydrogen peroxide]
- Concentration of H2O2 (%-point) ([1]; Series I, catheter swelled in a solution of PVP, 0 kGy, 1 week at 60° C.): 0.97 %-point
- Concentration of H2O2 (%-point) ([1]; Series I, catheter swelled in a solution of PVP, 0 kGy, 2 weeks at 60° C.): 0.87 %-point
- Concentration of H2O2 (%-point) ([1]; Series I, catheter swelled in a solution of PVP, 0 kGy, after irradiation): 1.00 %-point
- Concentration of H2O2 (%-point) ([1]; Series I, catheter swelled in a solution of PVP, 25 kGy, 1 week at 60° C.): 0.79 %-point
- Concentration of H2O2 (%-point) ([1]; Series I, catheter swelled in a solution of PVP, 25 kGy, 2 weeks at 60° C.): 0.70 %-point
- Concentration of H2O2 (%-point) ([1]; Series I, catheter swelled in a solution of PVP, 25 kGy, after irradiation): 0.85 %-point
- Concentration of H2O2 (%-point) ([1]; Series I, catheter swelled in a solution of PVP, 50 kGy, 1 week at 60° C.): 0.58 %-point
- Concentration of H2O2 (%-point) ([1]; Series I, catheter swelled in a solution of PVP, 50 kGy, 2 weeks at 60° C.): 0.46 %-point
- Concentration of H2O2 (%-point) ([1]; Series I, catheter swelled in a solution of PVP, 50 kGy, after irradiation): 0.73 %-point
- Concentration of H2O2 (%-point) ([1]; Series I, catheter swelled in a solution of PVP, 75 kGy, 1 week at 60° C.): 0.37 %-point
- Concentration of H2O2 (%-point) ([1]; Series I, catheter swelled in a solution of PVP, 75 kGy, 2 weeks at 60° C.): 0.26 %-point
- Concentration of H2O2 (%-point) ([1]; Series I, catheter swelled in a solution of PVP, 75 kGy, after irradiation): 0.57 %-point
- Concentration of H2O2 (%-point) ([1]; Series II, catheter swelled in distilled water, 0 kGy, 1 week at 60° C.): 0.98 %-point
- Concentration of H2O2 (%-point) ([1]; Series II, catheter swelled in distilled water, 0 kGy, 2 weeks at 60° C.): 0.92 %-point
- Concentration of H2O2 (%-point) ([1]; Series II, catheter swelled in distilled water, 0 kGy, after irradiation): 1.00 %-point
- Concentration of H2O2 (%-point) ([1]; Series II, catheter swelled in distilled water, 25 kGy, 1 week at 60° C.): 0.91 %-point
- Concentration of H2O2 (%-point) ([1]; Series II, catheter swelled in distilled water, 25 kGy, 2 weeks at 60° C.): 0.85 %-point
- Concentration of H2O2 (%-point) ([1]; Series II, catheter swelled in distilled water, 25 kGy, after irradiation): 0.93 %-point
- Concentration of H2O2 (%-point) ([1]; Series II, catheter swelled in distilled water, 50 kGy, 1 week at 60° C.): 0.81 %-point
- Concentration of H2O2 (%-point) ([1]; Series II, catheter swelled in distilled water, 50 kGy, 2 weeks at 60° C.): 0.75 %-point
- Concentration of H2O2 (%-point) ([1]; Series II, catheter swelled in distilled water, 50 kGy, after irradiation): 0.87 %-point
- Concentration of H2O2 (%-point) ([1]; Series II, catheter swelled in distilled water, 75 kGy, 1 week at 60° C.): 0.74 %-point
- Concentration of H2O2 (%-point) ([1]; Series II, catheter swelled in distilled water, 75 kGy, 2 weeks at 60° C.): 0.66 %-point
- Concentration of H2O2 (%-point) ([1]; Series II, catheter swelled in distilled water, 75 kGy, after irradiation): 0.81 %-point
- Concentration of H2O2 (%-point) ([1]; Series III, H2O2-solution in distilled water, 0 kGy, 1 week at 60° C.): 0.87 %-point
- Concentration of H2O2 (%-point) ([1]; Series III, H2O2-solution in distilled water, 0 kGy, 2 weeks at 60° C.): 0.76 %-point
- Concentration of H2O2 (%-point) ([1]; Series III, H2O2-solution in distilled water, 0 kGy, after irradiation): 1.00 %-point
- Concentration of H2O2 (%-point) ([1]; Series III, H2O2-solution in distilled water, 25 kGy, 1 week at 60° C.): 0.91 %-point
- Concentration of H2O2 (%-point) ([1]; Series III, H2O2-solution in distilled water, 25 kGy, 2 weeks at 60° C.): 0.88 %-point
- Concentration of H2O2 (%-point) ([1]; Series III, H2O2-solution in distilled water, 25 kGy, after irradiation): 0.95 %-point
- Concentration of H2O2 (%-point) ([1]; Series III, H2O2-solution in distilled water, 50 kGy, 1 week at 60° C.): 0.84 %-point
- Concentration of H2O2 (%-point) ([1]; Series III, H2O2-solution in distilled water, 50 kGy, 2 weeks at 60° C.): 0.85 %-point
- Concentration of H2O2 (%-point) ([1]; Series III, H2O2-solution in distilled water, 50 kGy, after irradiation): 0.92 %-point
- Concentration of H2O2 (%-point) ([1]; Series III, H2O2-solution in distilled water, 75 kGy, 1 week at 60° C.): 0.79 %-point
- Concentration of H2O2 (%-point) ([1]; Series III, H2O2-solution in distilled water, 75 kGy, 2 weeks at 60° C.): 0.77 %-point
- Concentration of H2O2 (%-point) ([1]; Series III, H2O2-solution in distilled water, 75 kGy, after irradiation): 0.89 %-point
- Calculated degraded amount of H2O2 (%) after 2 years storage at 23° C. ([2]; 0 mM citrate, pH 5.5): 22.4%
- Calculated degraded amount of H2O2 (%) after 2 years storage at 23° C. ([2]; 0 mM citrate, pH 7): 60.2%
- Calculated degraded amount of H2O2 (%) after 2 years storage at 23° C. ([2]; 10 mM citrate, pH 4): 47.6%
- Calculated degraded amount of H2O2 (%) after 2 years storage at 23° C. ([2]; 10 mM citrate, pH 5.5): 63.0%
- Calculated degraded amount of H2O2 (%) after 2 years storage at 23° C. ([2]; 10 mM citrate, pH 7): 277.1%
- Calculated degraded amount of H2O2 (%) after 2 years storage at 23° C. ([2]; 25 mM citrate, pH 5.5): 74.2%
- Calculated degraded amount of H2O2 (%) after 2 years storage at 23° C. ([2]; 25 mM citrate, pH 7): 201.5%
- calculated amount of degraded H2O2 after 2 years of storage at 23° C. ([3]; pH 4): 15.7%
- calculated amount of degraded H2O2 after 2 years of storage at 23° C. ([3]; pH 5.5): 31.7%
- calculated amount of degraded H2O2 after 2 years of storage at 23° C. ([3]; pH 7): 54.7%
- bacterial growth, Mean (% of control) ([4]; 0.00000256% hydrogen peroxide): 110.0 % of control
- bacterial growth, Mean (% of control) ([4]; 0.0000128% hydrogen peroxide): 99.8 % of control
- bacterial growth, Mean (% of control) ([4]; 0.000064% hydrogen peroxide): 97.9 % of control
- bacterial growth, Mean (% of control) ([4]; 0.000320% hydrogen peroxide): 96.2 % of control
- bacterial growth, Mean (% of control) ([4]; 0.0016% hydrogen peroxide): 87.3 % of control
- bacterial growth, Mean (% of control) ([4]; 0.008% hydrogen peroxide): 63.0 % of control
- bacterial growth, Mean (% of control) ([4]; 0.04% hydrogen peroxide): 35.6 % of control
- bacterial growth, Mean (% of control) ([4]; 0.2% hydrogen peroxide): 16.0 % of control
- bacterial growth, Mean (% of control) ([4]; 1.0% hydrogen peroxide): 11.7 % of control
- speed of effect compared to a range of other anti-microbial agents [5]: rapid
- H2O2 disappeared during storage (1 week at 80° C., samples not containing PEG 2000, regardless of initial H2O2 concentration): 25-30%
- %-point H2O2 after storage (initial 0.2%-point H2O2, 60° C., 1 week, no PEG 2000): 0.20 %-point
